{"source": "patent US5162231A", "about": "“Method of using 5,10,15,20-tetrakis(carboxyphenyl)porphine for detecting cancers of the lung” (priority 1990, dated 1992)", "key": {"malignant sputum cells": {"test_system": "malignant sputum cells", "experiment": "Porphyrin uptake in sputum cells evaluated with a fluorescent microscope", "format": "cell-based, human", "from_the_text": "Five parameters were investigated for this study: (1) the effect of various sputum processing procedures on the uptake of porphyrin in sputum cells, (2) the comparison of TCPP to three other porphyrins that are known for their uptake by tumors, (3) the time required for optimal uptake of the porphyrin in sputum cells, (4) the uptake of porphyrin in test and control sputum samples, and (5) the verification that TCPP was localizing in malignant sputum cells. In each of these investigations, the uptake of porphyrin in sputum cells was evaluated with a fluorescent microscope. Nonmetallated porphyrin fluoresces at approximately 650 nm. Sputum samples were evaluated for (1) the number of cells in the sputum samples which fluoresced, and (2) the intensity of the porphyrin fluorescence.\nSputum samples require processing in order to produce a single cell suspension of lung cells. Sputum samples from test and control patients were collected and processed with alcohol and carbowax, alcohol only, phosphate-buffered saline (PBS), or left unprocessed. All samples were mixed with a blender for 1 minute following the addition of the processing mixture and then placed into petri dishes containing various porphyrins. […] Cells in the unprocessed sputum samples remained attached to the bottom of the petri dish with only a few cells free of the mucous.\nFour porphyrins selected for their known affinity for neoplastic cells were tested for their ability to detect malignant sputum cells. Sputum cells obtained from each of the four processing procedures set forth above were treated with one of hematoporphyrin derivative, HPD, 5,10,15,20-tetrakis(4-carboxyphenyl)porphine, TCPP, 5,10,15,20-tetrakis(4-sulfonatophenyl)porphine, TTPS, or uroporphyrin, URO. In all investigations, the porphyrins were dissolved in tissue culture medium at a concentration of 200 μg/ml. Following the addition of porphyrin, each sample was incubated at 37° C. for a specific length of time.\nFollowing the incubation period, each sputum sample was examined for porphyrin uptake with a fluorescent microscope. The background fluorescence from porphyrin uptake by nonmalignant cells was lower in some measurements.\nEach sputum sample was incubated at 37° C. with each of the porphyrins for either 6 or 24 hours and then evaluated for porphyrin uptake with a fluorescent microscope. At the 6 hour incubation period, the cells had begun to localize porphyrin; however, when the sputum cells were washed with PBS, the fluorescence diminished considerably. […] By 24 hours, by contrast, the uptale of porphyrin by sputum cells increased considerably. […] When the sputum cells that had been incubated for 24 hours were washed with PBS, the porphyrin remained attached to the cells. Longer incubation times were not investigated.\nWhen porphyrin uptake in the test and control samples were compared (i.e., the number of sputum cells which fluoresced), the porphyrin uptake in the control samples was considerably lower than the uptake in the test samples. In addition, the fluorescence intensity of the few control cells that did floresce was lower than the fluorescence intensity of the test cells."}, "neoplastic sputum cells": {"test_system": "neoplastic sputum cells", "experiment": "TCPP fluorescence in PAP-stained neoplastic sputum cells", "format": "cell-based, human", "conditions": "after PAP staining", "from_the_text": "To assist in the identification of the neoplastic cells, sputum samples which had the greatest TCPP uptake were stained with PAP stain, a stain routinely used by cytologists to identify neoplastic cells. Cells identified as neoplastic using the PAP stain were marked and re-examined for TCPP uptake with a fluorescent microscope."}, "[1]": {"test_system": "neoplastic sputum cells (squamous cell lung carcinoma, oat cell lung carcinoma, lung adenocarcinoma, advanced metastatic lymphoma)", "experiment": "Fluorescence of sputum samples from lung cancer patients versus noncancerous patients", "format": "cell-based, human", "description": "Studies were conducted using patients having confirmed squamous cell lung carcinoma, oat cell lung carcinoma, lung adenocarcinoma, and advanced metastatic lymphoma (lung metastasis) using procedures identical to those set forth above."}, "[2]": {"test_system": "cancers of the lung grown in tissue cultures", "experiment": "TCPP localization in lung cancers grown in tissue culture", "format": "cell-based"}, "squamous carcinoma cells": {"test_system": "squamous carcinoma cells", "experiment": "TCPP uptake in squamous carcinoma cells, flow cytometry", "format": "cell-based", "conditions": "squamous carcinoma cells grown in culture"}, "[3]": {"test_system": "human small cell (oat cell) lung carcinoma", "experiment": "TCPP uptake in small cell lung carcinoma cells", "format": "cell-based"}, "[4]": {"test_system": "normal human lung epithelial cells", "experiment": "TCPP uptake in normal lung epithelial cells", "format": "cell-based"}, "[5]": {"experiment": "Serum stability: loss of copper measured by fluorescence under simulated physiological conditions", "format": "in vitro ADME, human", "from_the_text": "An important consideration in the development of a radiopharmaceutical is the stability of the complex ^67 Cu TCPP to the loss of the radioisotope ^67 Cu in vivo."}, "[6]": {"experiment": "Biodistribution in rats after intravenous injection", "format": "in vivo", "conditions": "normal rats (no cancer), 1.0×10^-6 gm", "from_the_text": "(§1) A sterile dose of ^67 CuTCPP (1.0×10^-6 gm) was intravenously injected into the tail vein of rats."}, "[7]": {"experiment": "Biological half-life study", "format": "in vivo", "conditions": "rats, intravenous; exponential decay", "from_the_text": "as §1"}, "[8]": {"conditions": "200 μg/ml, 37° C., four porphyrins compared"}}}
{"compound": "O=C(O)c1ccc(-c2c3nc(c(-c4ccc(C(=O)O)cc4)c4ccc([nH]4)c(-c4ccc(C(=O)O)cc4)c4nc(c(-c5ccc(C(=O)O)cc5)c5ccc2[nH]5)C=C4)C=C3)cc1", "note": "[TCPP, 5,10,15,20-tetrakis(4-carboxyphenyl)porphine]", "values": [{"measurement": "contrast (brightness) between fluorescing malignant cells and background fluorescence", "setting": "malignant sputum cells; [8]", "value": "greatest contrast (brightness)"}, {"measurement": "number of cells fluorescing", "setting": "malignant sputum cells; [8]", "value": "greatest number of cells fluorescing"}, {"measurement": "porphyrin uptake", "setting": "malignant sputum cells; [8]", "value": "significant porphyrin uptake in the malignant bodies"}, {"measurement": "TCPP uptake by sputum processing procedure", "setting": "malignant sputum cells; alcohol or alcohol/carbowax processing vs PBS or unprocessed", "value": "highest TCPP uptake"}, {"measurement": "difference between the uptake of porphyrin by test and control sputum cells", "setting": "malignant sputum cells; four porphyrins compared", "value": "most dramatic difference"}, {"measurement": "TCPP fluorescence in neoplastic cells identified by PAP stain", "setting": "neoplastic sputum cells", "value": "seen in every neoplastic cell"}, {"measurement": "uptake of porphyrin in neoplastic sputum cells", "setting": "[1]; carbowax and ethanol", "value": "greatest uptake of porphyrin in neoplastic sputum cells"}, {"measurement": "number of fluorescent cells times fluorescence intensity, cancer patients vs noncancerous patients", "setting": "[1]; sputum samples", "value": "3-6 times"}, {"measurement": "incubation time for TCPP localization", "setting": "[2]; 24 hours in TCPP", "value": "more than adequate to maximize the TCPP localization"}, {"measurement": "effect of fixing the cells prior to TCPP exposure on TCPP uptake", "setting": "[2]; fixed prior to TCPP exposure", "value": "increased the TCPP uptake"}, {"measurement": "effect of paraformaldehyde fixation on TCPP uptake", "setting": "[2]; paraformaldehyde vs alcohol and carbowax", "value": "slightly increase the TCPP uptake"}, {"measurement": "localization in cultured lung cancers", "setting": "[2]; tissue culture", "value": "localizes in cancers of the lung grown in tissue cultures"}, {"measurement": "detection by flow cytometry", "setting": "squamous carcinoma cells", "value": "can easily be detected using flow cytometry"}, {"measurement": "TCPP uptake compared with normal cells", "setting": "[3]; vs normal cells", "value": "considerably higher than uptake in normal cells"}, {"measurement": "TCPP absorption lower than in squamous cell line", "setting": "[3]; vs squamous cell line", "value": "2-3 times lower"}, {"measurement": "TCPP concentration relative to autofluorescence or background", "setting": "[4]; normal human lung epithelial cells", "value": "only slightly above autofluorescence or background levels"}, {"measurement": "TCPP concentration relative to neoplastic cell lines", "setting": "[4]; vs neoplastic cell lines examined", "value": "many times lower concentration"}]}
{"compound": "O=C([O-])c1ccc(C2=C3C=CC(=N3)C(c3ccc(C(=O)[O-])cc3)=C3C=CC(=N3)C(=c3ccc(=C([O-])[O-])cc3)c3ccc([n-]3)C(c3ccc(C(=O)[O-])cc3)=C3C=CC2=N3)cc1.[67Cu+2].[H+].[H+].[H+].[H+]", "note": "[^67 CuTCPP]", "values": [{"measurement": "conversion (loss of copper)", "setting": "[5]; human serum albumin, EDTA and DTPA, up to 12 days, one percent is the limit of detection", "value": "less than one"}, {"measurement": "transcomplexation with other metal ions", "setting": "[5]; ultraviolet-visible spectroscopy", "value": "no detectable transcomplexation with other metal ions"}, {"measurement": "uptake by normal lung tissue", "setting": "[6]", "value": "does not appear to take up significant quantities"}, {"measurement": "major organs of localization", "setting": "[6]; tail vein", "value": "liver and kidney"}, {"measurement": "biological half-life", "setting": "[7]", "value": 108, "unit": "hours"}]}
{"compound": "uroporphyrin [reference compound]", "values": [{"measurement": "porphyrin uptake", "setting": "malignant sputum cells; [8]", "value": "least porphyrin uptake"}]}
